Reference: patent US8703424B2, “Predicting human developmental toxicity of pharmaceuticals using human stem-like cells and metabolomics” (Stemina Biomarker Discovery, Inc., priority 2010, dated 2014)
Where two headings read alike, the source gives them in different places.

Tests used:
WA09 hESCs = assay: Random forest prediction of teratogenicity from metabolomics of spent media of dosed hESCs; assay type: cell-based, human; settings: for Predicted teratogenicity (random forest statistical model): blind study, model trained on TS1, 142 mass features, circulating dose
Method: WA09 hESCs, obtained from WiCell Research Institute (NIH National Stem Cell Bank, Madison, Wis.) were cultured in 6-well plates on Matrigel (BD Biosciences, San Jose, Calif.), in mTeSR1 medium (Stem Cell Technologies, Vancouver, BC) incubated at 37° C. under 5% CO2 in a Thermo Electron Form a Series II Water Jacket CO2 Incubator. hESCs were passaged every three or four days at a 1:3 or 1:6 seeding density for routine culture conditions. For dosing experiments, hESCs were passaged at a low density of 1:10 or 1:12 so that they would not require passaging during the […] dosing protocol. To passage hES cells, the StemPro® EZPassage™ disposable stem cell passaging tool (Invitrogen, Carlsbad, Calif.) was used to detach the cells from the wells. Detached cells were removed with a pipette and distributed to new Matrigel plates.
These medium controls provided baseline mass spectral data.
The 2.5 mL of spent media per well from Example 1 was added to 1.67 mL acetonitrile to make a 40% acetonitrile solution. The acetonitrile acts to “quench” the spent media sample, slowing or halting many metabolic processes and aiding in precipitation of cellular proteins. Samples were either stored at −80° C. for later analysis, or for immediate analysis, 250 μL of the quenched solution was mixed with 250 μL of water, to a final concentration of 20% acetonitrile, then added to a 3 kDa molecular weight cut-off filter spin column (Microcon YM-3 Centrifugal Filter, Millipore, Billerica, Mass.). Each sample was then centrifuged in an IEC CL31R Multispeed Centrifuge (Thermo Scientific, Waltham, Mass.) at 13,000×g at 4° C. for 200 minutes. Following centrifugation, the flow-through was saved then dried for several hours in a Savant High Capacity Speedvac Plus Concentrator. The concentrated sample was then dissolved in 50 μL of 0.1% formic acid prior to LC-MS analysis.
5 μl of each sample was injected.
Following LC-MS, chromatograms were inspected for reproducibility. LC-MS runs with total ion counts that vary by more than 25% were repeated to ensure that samples could be accurately compared. These runs were then used to create mass features that correspond to molecules detected across the different LC-MS runs. Mass features were extracted from the LC-MS data using MassHunter Qualitative Analysis software (Agilent Technologies). The following criteria were used as general guidelines, however some flexibility and optimization was needed. m/z values within the range of 75-1500, with a charge of +1 or −1, and a centroid height greater than 1000 were used to generate “mass features.” The mass peaks that pass these criteria were used to fit isotope and adduct (Na^+, K^+, and NH4^+) patterns corresponding to individual molecules, and to establish the abundance of each mass feature. The abundance is calculated by MassHunter software as the sum of the isotopic and adduct peaks that correspond to a single molecular feature. After data deconvolution, mass features showing at least two ions (e.g. (M^+H)^+ and (M^+H)^++1 or (M^+H)^+ and (M^+Na)^+) and an abundance value greater than 50000 for positive-ion mode data and 10000 in negative-ion mode data were included in the data set used for binning of the mass features.
Following feature selection by MassHunter, the data was further preprocessed by MassProfiler (Agilent) software which aligns mass features across multiple LC-MS data files. Mass features were generated for data from each drug treatment experiment (dosed and control) using the default alignment settings in MassProfiler with the requirement that a feature be present in at least 80% of the samples in one treatment. The mass feature datasets for each drug treatment experiment were further processed in a global manner using custom analysis scripts executed in the R statistical software environment. […]

hESCs = assay: Arginine / ADMA fold change ratio (integrated EICs) in dosed hESCs vs controls; settings: for Arg fold change/ADMA fold change: EIC areas, controls vs. dosed
Method: All tested chemicals were purchased from Sigma-Aldrich (St. Louis, Mo.). Cells were dosed with drugs at a concentration equivalent to their published serum circulating therapeutic dosages. Dosing was performed on hESCs in 6-well plates in triplicate, i.e. three wells per plate. The plates were dosed in triplicate, so there were a total of nine dosed wells. In parallel, there were nine “control” wells, in which hESCs were cultured with mTeSR1 containing no drug, and three wells containing Matrigel with mTeSR1 medium without hESCs that served as medium controls. Lastly, three wells of dosed medium controls were prepared, containing Matrigel, mTeSR1 and drug, but no hESCs (FIG. 1). These medium controls provided baseline mass spectral data. On the first day of dosage, the determined concentration of drug was dissolved in mTeSR1, and then 2.5 mL of this solution was added to each dosed well of hESCs. Each day, for four days, the medium was removed and new dosed medium was added. On the fourth day, the medium was removed and added to acetonitrile to make a 40% acetonitrile solution, as outlined in the Sample Preparation section below.
Mass spectrometry was performed using an Agilent QTOF LC/MS system consisting of a G6520AA QTOF high resolution mass spectrometer capable of exact mass MS and MS/MS. In order to facilitate separation of small molecules with a wide range of polarity and to allow increased retention of hydrophilic species, Hydrophilic Interaction Liquid Chromatography (Alpert 1990) was employed. Each sample was run for 30 minutes with the gradient shown in Table 3 at a flow rate of 0.5 mL/min, using 0.1% formic acid in water (Solvent A) and 0.1% formic acid in acetonitrile (Solvent B). Electrospray ionization was employed using a dual ESI source, with an Agilent isocratic pump continuously delivering an internal mass reference solution into the source at approx. 0.01 mL/min. The mass range of the instrument was set to 100-1700 Da. A Phenomenex Luna HILIC column with dimensions 3×100 mm 3 μm particle size was used and maintained at 30° C. 5 μl of each sample was injected. Data acquisition was performed with Agilent MassHunter using high-resolution exact mass conditions.
Valproate is known to cause neural tube defects (DiLiberti et al. 1984) while nitric oxide synthase activity is essential for neural tube closure (Nachmany et al. 2006).

[1] = system: WA09 human embryonic stem (hES) cells; assay: PLS-DA prediction of teratogenicity from secretome of treated hES cells (Example 9); settings: DevTox pharmaceutical
Source text: These included 11 known teratogens and 11 known non-teratogens. The current model is based on the mean fold change (treatment versus its associated intra-experimental control) of 15 metabolites common among the secretome of hES cells treated with pharmaceutical agents and unknown chemical compounds.

[2] = high dose (H = 10x circulating dose)
[3] = low dose (L = 0.1x circulating dose)

Arg/ADMA Prediction (hESCs)	SMILES	Classification by the refined random forest model (FIG. 3) (WA09 hESCs; 18-feature model, 26 drug treatment experiments)	Predicted teratogenicity (random forest statistical model) (WA09 hESCs)	Arg fold change/ADMA fold change (hESCs)	% Non (PLS-DA class probability non-teratogen) [1, 2]	% Ter (PLS-DA class probability teratogen) [1, 2]	Confidence (difference between class probabilities) [1, 2]	Prediction [1, 2]	% Non (PLS-DA class probability non-teratogen) [1, 3]	% Ter (PLS-DA class probability teratogen) [1, 3]	Confidence (difference between class probabilities) [1, 3]	Prediction [1, 3]	Outcome of the Arg/ADMA metrics for teratogenicity (hESCs)	Arg/ADMA Prediction (hESCs; from fold change ratio)
Ter	CC1=C(/C=C/C(C)=C/C=C/C(C)=C\C(=O)O)C(C)(C)CCC1 [Accutane]	misclassified as non-teratogens	Non	0.55	0.3	0.7	0.4	Ter	0.33	0.67	0.34	Ter		
Ter	CCCCc1oc2ccccc2c1C(=O)c1cc(I)c(OCCN(CC)CC)c(I)c1 [Amiodarone]		Ter	1.64										
Ter	O=C1O[C@H]([C@@H](O)CO)C(O)=C1O [Ascorbic Acid]			1.28	0.57	0.43	0.14	Non	0.57	0.43	0.14	Non	false positives for teratogenicity	
	CC(=O)Oc1ccccc1C(=O)O [Aspirin]			1.07										
	Cn1c(=O)c2c(ncn2C)n(C)c1=O [Caffeine]				0.53	0.47	0.06		0.58	0.42	0.16			
	CN(C)CCOC(c1ccccc1)c1ccccc1 [Diphenhydramine]				0.73	0.27	0.46	Non	0.76	0.24	0.52	Non		
	Nc1nc2ncc(CNc3ccc(C(=O)N[C@@H](CCC(=O)O)C(=O)O)cc3)nc2c(=O)[nH]1 [Folic Acid]			1.08	0.59	0.41	0.18	Non	0.59	0.41	0.18	Non		
	NNC(=O)c1ccncc1 [Isoniazid]			0.94	0.59	0.41	0.18	Non	0.76	0.24	0.52	Non		
	N[C@@H](Cc1cc(I)c(Oc2cc(I)c(O)c(I)c2)c(I)c1)C(=O)O [Levothyroxine]			1.03	0.59	0.41	0.18	Non	0.69	0.31	0.38	Non		Non (Smaller fold change ratios (between 0.9 and 1.1) show a good correlation with non-teratogens)
	CC1(C)S[C@@H]2[C@H](NC(=O)Cc3ccccc3)C(=O)N2[C@H]1C(=O)O [Penicillin G]			0.96										Non (Smaller fold change ratios (between 0.9 and 1.1) show a good correlation with non-teratogens)
	CC1(C)S[C@@H]2[C@H](NC(=O)Cc3ccccc3)C(=O)N2[C@H]1C(=O)O [PenicillinG]				0.57	0.43	0.14	Non	0.55	0.45	0.1	Non		
Ter	CC1=C(/C=C/C(C)=C/C=C/C(C)=C/C(=O)O)C(C)(C)CCC1 [Retinoic Acid]			0.48										
	CC1=C(/C=C/C(C)=C/C=C/C(C)=C/C(=O)O)C(C)(C)CCC1 [RetinoicAcid]				0.3	0.7	0.4	Ter	0.3	0.7	0.4	Ter		
	O=C1NS(=O)(=O)c2ccccc21 [Saccharin]				0.8	0.2	0.6	Non	0.75	0.25	0.5	Non		
	CCCC(CCC)C(=O)O [VPA]				0.34	0.66	0.32	Ter	0.43	0.57	0.14	Ter		
